Inhibition data for seven compounds are collected here from patent publication US4929635A, “New derivatives of 4-vinyl benzoic acid, process for their preparation and their uses in therapeutics and as ligands” (Laboratoires Chauvin-Blache, priority 1984, dated 1990).

For the assay, the target named is T1, cytosolic receptor of retinoic acid (C.R.A.B.P.) of rat testicles (Rattus norvegicus, UniProt P62966).
T1 construct: to obtain the cytosol; from tissue; host or cells: rat testicles, 105000×g cytosol
T1 sequence (P62966 whole entry): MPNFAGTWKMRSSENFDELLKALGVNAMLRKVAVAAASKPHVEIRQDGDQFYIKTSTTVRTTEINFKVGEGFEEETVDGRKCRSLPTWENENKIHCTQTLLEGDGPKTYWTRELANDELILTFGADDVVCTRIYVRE
Briefly: Affinity for the cytosolic receptor of retinoic acid (C.R.A.B.P.) of rat testicles: inhibition of specific linking of tritiated retinoic acid. Format: binding. The settings on record: ligand 4 μM; tritiated retinoic acid 20 nM; rat testicle cytosol 2 mg/ml; 16 h at 4° C., pH 7.4; unmarked retinoic acid = 100% inhibition. How it is done: Affinity for the cytosolic receptor of retinoic acid (C.R.A.B.P.) of rat testicles
The affinity of the compounds of the formula I for the C.R.A.B.P. receptor is determined by measurement of the inhibition of the specific linking of tritiated retinoic acid (*AR) by the various compounds according to the method of ONG and CHYTIL (J. Biol. Chem., 1975, 250, 6113) modified:
The rat testicles thawed to 4° C. are placed in Tris-HCl 50 mM, DTE 2 mM buffer, pH 7.4, then ground in a Potter Teflon/glass grinder (three times at 800 rpm). The ground product is centrifuged at 4000×g for 10 min at 4° C.
The supernatant liquor is then centrifuged for 60 min at 105000×g at 4° C. to obtain the cytosol. The final protein concentration of the cytosol is adjusted to 2 mg/ml.
200 μl of cytosol are incubated for 16 h at 4° C. in the presence of tritiated retinoic acid 20 nM (specific activity: 30 Ci/mmole), in the presence of the ligands to be tested at the concentration of 4 μM.
The incubations are followed by treatment with charcoal-dextran (1%-0.0025%) for 30 min at 4° C. The bound radioactivity is determined by counting in liquid scintillation.

As a reminder, the inhibition is the relative decrease from the control value, in per cent. A lower inhibition goes with a response near the control. Take `C/C(=C\c1ccc(C(=O)O)cc1)c1ccccc1` [Compound 1]: at 4 µM the inhibition was 18.9%.

`C/C(=C\c1ccc(C(=O)O)cc1)c1ccc(C(C)C)cc1` [Compound 3, (E)-4-[2-(4-isopropylphenyl)propenyl]benzoic acid] returned an inhibition at 4 µM of 68.5%.

`C/C(=C\c1ccc(C(=O)O)cc1)c1cccs1` [Compound 9] gave an inhibition at 4 µM of 18.5%.

`C/C(=C\c1ccc(C(=O)N2CCN(C)CC2)cc1)c1ccc(C(C)C)cc1` [Compound 11] registered an inhibition at 4 µM of 27.5%.

Regarding `C/C(=C\c1ccc(C(=O)O)cc1)c1cccc(C(C)C)c1` [Compound 12], at 4 µM the inhibition was 67.5%.

In the case of `C/C(=C\c1ccc(C(=O)O)cc1)c1cc(C(C)C)cs1` [Compound 13], 4 µM produced 72.5% inhibition.

As for `C/C(=C\c1ccc(C(=O)O)cc1)c1ccc(C(C)C)s1` [Compound 14], at 4 µM the inhibition was 75%.
